pIC50: −log10 of the molar value.
Test system: P. falciparum 3D7 growth, pLDH absorbance
Assay: blood-stage malaria parasite growth potency – strain 3D7, dose response (AID 2305)

`O=C(Nc1ccc(F)cc1)NC1CCN(c2ccnc3cc(Cl)ccc23)CC1` was tested, and the pIC50 was 6.39.

`O=C(/C=C/c1ccccc1Cl)Nc1ccc(Br)c(OCCN2CCN(CCN3CCOCC3)CC2)c1` showed a pIC50 of 6.12.

Work on `CCCN1CCN(c2ccccc2NS(=O)(=O)c2ccc(C(=O)Nc3ccc(Cl)cc3)cc2)CC1` yielded a pIC50 of 5.94.

`O=C(NCCN1CCCC1)c1cccc(-c2ccc(-c3nc4ccc(C(F)(F)F)cc4[nH]3)cc2)c1` was tested, and the pIC50 was 6.12.

`Cc1cc(OCCCN2CCCCC2)ccc1NC(=O)COc1ccc(Cl)cc1C(=O)c1cc(C#N)cc(C(F)(F)F)c1` showed a pIC50 of 5.99.

`Cc1[nH]c(C)c(-c2ccc(S(=O)(=O)c3ccc(Cl)cc3)cc2)c(=O)c1Cl` was tested, and the pIC50 was 6.85.

`Cc1cc2nc(-c3ccc(/C=C/C(=O)NCCc4ccccc4)cc3)[nH]c2cc1C` gave a pIC50 of 6.11.

With `CC(C)N(Cc1ccc(-c2ccc(C(F)(F)F)cc2)cc1)C(=O)Cn1c(SCc2cccc(F)c2F)cc(=O)c2cc(CN3CCCCC3)ccc21` the pIC50 was 6.06.

`c1ccc(CCNCc2ccc(-c3ccc(CNc4ccc5ncccc5c4)cc3)cc2)cc1` was tested, and the pIC50 was 6.04.

Compound `O=C(Nc1cccc(-c2nc3ccccc3s2)c1)c1ccccc1[N+](=O)[O-]` has a pIC50 of 6.11.

With `N#Cc1cccc(NC(=O)Nc2ccc(CC(=O)N3CCc4cc(Cl)c(N5CCN(C/C=C/c6ccccc6)CC5)cc43)cc2)c1` the pIC50 was 6.06.

`O=C(O[C@@H]1CN[C@H](C#Cc2cc3ncnc(Nc4ccc5c(cnn5Cc5cccc(F)c5)c4)c3s2)C1)N1CCCC1` was tested, and the pIC50 was 6.12.

In the case of `Cc1ccc2cc(NC(=O)CCCCCCCON3C(N)=NC(N)=NC34CCCCC4)ccc2n1`, the pIC50 was 7.05.

Work on `Cc1cccc(C(=O)NC(NC(=S)Nc2ccc([N+](=O)[O-])cc2)C(Cl)(Cl)Cl)c1` (stereo unspecified) yielded a pIC50 of 6.13.

Work on `N[C@@H](Cc1cc(I)c(Oc2ccc(O)c(Cl)c2)c(I)c1)C(=O)O` yielded a pIC50 of 6.00.

For `COc1ccc(CNCc2ccsc2)cc1-c1ccc(S(=O)(=O)NCCN2CCCC2)c(C)c1`, the pIC50 was 6.05.

`O=C(Nc1cccc(OC2CCN(Cc3ccccc3)CC2)c1)c1ccc(Cl)c(Cl)c1` showed a pIC50 of 6.14.

In the case of `O=C(Nc1ccc(Cl)c(Cl)c1)N1CCc2cc3nccc(N4CCN5CCC[C@H]5C4)c3cc21`, the pIC50 was 6.20.

`Cc1nnc2c(NC(=O)NC3CCCC3)cc3cc(-c4ccc(CN(C)C)cc4)ccc3n12` gave a pIC50 of 5.83.

Compound `CCC(Nc1noc(-c2c(-c3ccccc3)noc2C)n1)c1ccccc1` (stereo unspecified) has a pIC50 of 6.01.

Work on `Cc1nc(N)nc(N)c1CCCOc1ccc(Br)cc1` yielded a pIC50 of 6.31.

`COc1cccc(CN2CCC(CCOC(c3ccccc3)c3ccccc3)CC2)c1O` showed a pIC50 of 6.14.

`COc1cc2nc(N(C)C)nc(Nc3ccc4c(cnn4Cc4ccccc4)c3)c2cc1OC` showed a pIC50 of 7.40.

Work on `Nc1nc(Nc2cccc(Cl)c2)ncc1C(=O)NCc1ccncc1` yielded a pIC50 of 6.08.

Work on `Cc1cc(-c2nc3cncc(-c4cccc(CN5CCCC5Cc5cccnc5)c4)c3n2C)nn1C` (stereo unspecified) yielded a pIC50 of 6.89.

With `O=C(Nc1cccc(CN2CCCN(Cc3ccc(O)cc3)CC2)c1)c1cc2ccccc2o1` the pIC50 was 5.92.

Work on `O=C(CC1CCCCC1)NCC(NCCCNc1cc(=O)c2ccccc2[nH]1)c1cc(Br)cc(Br)c1` (stereo unspecified) yielded a pIC50 of 5.98.

Compound `NC1CCN(c2nc(NCCc3ccc(O)cc3)nc(NCc3ccccc3-c3ccccc3)n2)CC1` has a pIC50 of 6.09.

`O=C(NCCc1cccc(F)c1)c1ccc(N2CCN(c3ccncc3)CC2)cn1` showed a pIC50 of 5.99.

`Cc1ccccc1OCCCN1CCN(CC(c2ccc(F)cc2)N2CCN(C(C)C)CC2)CC1` (stereo unspecified) was tested, and the pIC50 was 5.85.

Compound `CN1CCN(c2cc(-c3cccc(C(F)(F)F)c3)nc(-c3ccncc3)n2)CC1` has a pIC50 of 6.14.

`c1ccc(Oc2ccc(Nc3ccnc4c(-c5ccccn5)cccc34)cc2)cc1` was tested, and the pIC50 was 6.00.

`Cc1cc(N2CCNCC2)c2cc(NC(=O)Nc3ccc(Cl)c(Cl)c3)ccc2n1` gave a pIC50 of 6.51.

In the case of `COc1ccc2nc(C)cc(Nc3ccc(Oc4ccc5ccccc5c4Cl)c(Cl)c3)c2c1`, the pIC50 was 6.30.

Compound `O=C(Nc1cccc(C(F)(F)F)c1)c1ccc(S(=O)(=O)NCC2CCN(CC3CCCCC3)CC2)cc1` has a pIC50 of 6.49.

Compound `O[C@@H](c1ccccc1)[C@@H]1CN(CCC2C[C@@H]3CC[C@H]2C3)CC[C@@]1(O)c1ccccc1` (stereo partly specified) has a pIC50 of 6.46.

For `COc1cccc(-c2cc(C(=O)Nc3ccc4nc(-c5ccccc5)[nH]c4c3)[nH]n2)c1`, the pIC50 was 6.08.

With `CN1CCN(c2nc(NCCNc3ccc([N+](=O)[O-])cc3)c3ccccc3n2)CC1` the pIC50 was 5.88.

With `CCNC(C)(C)CN(Cc1ccc(-c2ccc(C(F)(F)F)cc2)cc1)C(=O)Cn1c(CCc2cccc(F)c2F)nc(=O)c2ccccc21` the pIC50 was 6.09.

`O=C(Nc1cccc(-c2ccc(CN3CCCC3)cc2)c1)c1cccc(Cl)c1` was tested, and the pIC50 was 6.37.

Work on `CC(C)c1ccc(N(CC(=O)N/N=C/c2ccc(C(F)(F)F)cc2)S(=O)(=O)c2ccc(C(F)(F)F)cc2)cc1` yielded a pIC50 of 6.07.

Work on `Cn1cnc(CCNC(=O)c2ccc(-c3cccc(-c4nc5ccc(F)cc5[nH]4)c3)cc2)c1` yielded a pIC50 of 6.17.

In the case of `COc1ccc(NC(=O)c2c(NC(=O)c3cccs3)sc3c2CCCC3)cc1`, the pIC50 was 6.35.

`Nc1cccc(CNCc2ccc(-c3cccc(-c4nc5ccc(F)cc5[nH]4)c3)cc2)c1` gave a pIC50 of 6.68.

`O=C(/C=C/c1ccc(Cl)c(Cl)c1)NCCCCCN1CCCN(C(=O)Nc2ccc(Cl)c(C(F)(F)F)c2)CC1` gave a pIC50 of 6.14.

With `Cn1ccnc1CCC(=O)Nc1ccc(Cl)cc1C(=O)Nc1ccc(Cl)cc1` the pIC50 was 5.81.

Work on `CC(=O)Nc1ccc(CN(Cc2ccc(C)cc2)Cc2cccc(Oc3ccccc3)c2)cc1` yielded a pIC50 of 5.98.

Work on `CC(CCc1ccccc1)NCC(O)c1ccc2c3c(cccc13)S(=O)(=O)N2C` (stereo unspecified) yielded a pIC50 of 6.20.

`Cc1cccc2[nH]c(-c3ccc(-c4ccc(CN5CCN(CCO)CC5)cc4)s3)nc12` showed a pIC50 of 6.15.

Compound `CC1CC1C(=O)NC1CCN(CC2(c3ccccc3)CCCCC2)CC1` (stereo unspecified) has a pIC50 of 6.19.

Work on `CN(c1cc(NC(=O)c2cccs2)ccn1)C1CCN(Cc2cccc(F)c2)CC1` yielded a pIC50 of 6.17.

For `CC(C)(C)c1cc(C(=O)N2CCN(c3ncnc4ccsc34)CC2)n(Cc2ccccc2)n1`, the pIC50 was 6.04.

Compound `Cc1cccc2sc(N(CCCn3ccnc3)C(=O)C=Cc3cccs3)nc12` has a pIC50 of 5.89.

In the case of `CN(C)CCN(C)Cc1ccc(-c2ccc(NC(=O)c3cccc(C#N)c3)cc2)cc1`, the pIC50 was 5.90.

`O=C(C=Cc1ccc(Br)cc1)N1CCC(CCN2CCC(c3c[nH]c4ccccc34)CC2)CC1` showed a pIC50 of 6.04.

With `O=C(NCCCCN1CCN(CC=Cc2ccccc2)CC1)c1ccc(NC(=O)c2cc(Cl)cc(Cl)c2)cc1` the pIC50 was 6.68.

`Cc1nccn1Cc1cc(C(C)(C)C)c(O)c(C(C)(C)C)c1` was tested, and the pIC50 was 6.10.

For `O=C(/C=C/c1ccc(Cl)c(Cl)c1)N1CCC(CN2CC[C@H](c3c[nH]c4ccccc34)[C@@H](O)C2)CC1`, the pIC50 was 6.09.

Compound `Cc1[nH]c(C)c(-c2ccc(CCc3ccc(C(F)(F)F)cc3)nc2)c(=O)c1Cl` has a pIC50 of 7.05.

`CC[C@H]1CN2CC[C@H]1C[C@H]2[C@H](O)c1cc(-c2ccc(Cl)c(Cl)c2)nc2ccc(OC)cc12` gave a pIC50 of 6.92.

Work on `COc1ccc(-c2ccc(NC(=O)c3ccc(C#N)cc3)cc2)cc1CN1CCC(O)CC1` yielded a pIC50 of 6.24.

`N#Cc1c(N)nc(SCC(=O)Nc2cc(C(F)(F)F)ccc2Cl)c(C#N)c1-c1cccs1` showed a pIC50 of 6.13.

`Ic1cc(CNC2CCCCC2)ccc1OCc1cccc(COc2ccc(CNC3CCCCC3)cc2I)c1` was tested, and the pIC50 was 6.08.

`Nc1c(Cl)cc(C(O)CNCCCCCOCCc2ccc3occc3c2)cc1Cl` (stereo unspecified) was tested, and the pIC50 was 6.16.

`CCCCN(CCCC)C(=N)c1cccc2c1CCCC2` showed a pIC50 of 5.81.

Compound `COc1c(Br)cc(Br)cc1C(C)=O` has a pIC50 of 6.00.

`O=C(Nc1cccc(-c2ccc(-c3nc4ccccc4[nH]3)cc2)c1)c1cccnc1` gave a pIC50 of 5.98.

Work on `Cc1nnc(NC(=O)c2cn(-c3ccccc3)nc2-c2ccccc2C)o1` yielded a pIC50 of 6.25.

With `CCCCCN1CCCC1CNS(=O)(=O)c1cccc(C(=O)Nc2cccc(C#N)c2)c1` (stereo unspecified) the pIC50 was 6.01.

`NC1=NC(c2ccccc2)N(OCc2ccccc2)C(N)=N1` (stereo unspecified) showed a pIC50 of 7.40.

`CC(=O)c1cccc2[nH]c(C(=O)NC3CCC(CCN4CCc5ccc(C#N)cc5C4)CC3)cc12` (stereo unspecified) gave a pIC50 of 6.08.

In the case of `CC(=O)Nc1ccc2[nH]cc(C3CCN(CC4CCN(C(=O)/C=C/c5ccc(Cl)c(Cl)c5)CC4)CC3)c2c1`, the pIC50 was 6.14.

Compound `O=C(Nc1ccccc1)N(Cc1cccc(-c2cccc(CNCc3ccc4c(c3)OCO4)c2)c1)C1CCN(Cc2ccccc2)CC1` has a pIC50 of 6.55.

In the case of `COc1ccc2ncc(F)c(CCN3[C@@H]4CC[C@H]3CC(NCc3cc5c(cn3)OCS5)C4)c2n1` (stereo partly specified), the pIC50 was 6.04.

`CCOc1c(Cl)cc(Cl)cc1CNCCCNc1nc2ccccc2[nH]1` gave a pIC50 of 6.08.

`CCNc1cc(C(=O)N[C@@H](Cc2cc(F)cc(F)c2)[C@H](O)CNCc2cccc(C(F)(F)F)c2)cc(N2CCCCS2(=O)=O)c1` was tested, and the pIC50 was 6.21.

Compound `CCn1c(-c2nonc2N)nc2c(-c3cccc(Cl)c3)ncc(OCCCNCc3cnc(C)nc3N)c21` has a pIC50 of 6.00.

`CCOC(=O)NCC(=O)Nc1cccc(-c2cccc(-c3nc4c(C)cccc4[nH]3)c2)c1` gave a pIC50 of 6.13.

In the case of `O=C(Nc1ccsc1C(=O)NC1CCCCC1)c1ccc(F)cc1`, the pIC50 was 5.92.

With `O=C(/C=C/c1ccc(C(F)(F)F)cc1)N1CCc2cc3nccc(N4CCN5CCC[C@H]5C4)c3cc21` the pIC50 was 5.82.

`COc1ccc(CN(C)CCCSc2ccc(NC(=O)c3cccc4c(=O)cc(-c5ccccc5)[nH]c34)cc2)cc1OC` showed a pIC50 of 6.04.

Compound `CC1=C(C(=O)Nc2ccc(Cl)cc2)C(c2ccncc2)n2nc(C(F)(F)F)nc2N1` (stereo unspecified) has a pIC50 of 6.03.

`O=C(Nc1ccc(CCNC2=NCCN2)cc1)Nc1ccc(CCNC2=NCCN2)cc1` gave a pIC50 of 6.10.

`c1cc2c3c(cccc3c1)NC(CCCCCCCCC1=Nc3cccc4cccc(c34)N1)=N2` showed a pIC50 of 6.08.

With `Cc1cc(C(=O)CN2C(=O)NC3(CCOc4ccccc43)C2=O)c(C)n1Cc1ccc(F)cc1` (stereo unspecified) the pIC50 was 6.06.

In the case of `NS(=O)(=O)NCCCN1CCN(c2ccccc2)CC1`, the pIC50 was 6.01.

Compound `CC(C)(CN)c1nc(-c2ccc(Cl)c(O)c2)c(-c2ccncc2)[nH]1` has a pIC50 of 6.12.

Compound `Cc1cc2ncc(C(N)=O)c(Nc3ccc(N4CCOCC4)cc3)c2cc1S(C)(=O)=O` has a pIC50 of 6.17.

For `CN1CCC(Oc2ccc(CN3CC[C@H](NC(=O)c4ccc(F)c(F)c4)C3)c3ccccc23)C1` (stereo partly specified), the pIC50 was 5.97.

Compound `CCOc1ccc2nc(C)cc(NN=Cc3ccccc3[N+](=O)[O-])c2c1` has a pIC50 of 7.52.

Work on `CN1CCOc2ccc(Nc3nnc(-c4cccc(-c5cccnc5)c4)o3)cc2C1` yielded a pIC50 of 7.00.

With `Cc1ccc(O)cc1Nc1c(C(N)=O)cnc2ccc(-c3cncs3)cc12` the pIC50 was 6.17.

`O=S(=O)(Nc1ccc2nccc(N3CCNCC3)c2c1)c1ccc(-c2ccccc2)cc1` was tested, and the pIC50 was 6.01.

In the case of `CCOc1ccc2c(NN=Cc3cccc(OC)c3OC)cc(C)nc2c1`, the pIC50 was 6.05.

`CCOC(=O)c1c(-c2ccccc2)[nH]c2c(sc3ccccc32)c1=O` was tested, and the pIC50 was 6.43.

`CN(C)Cc1cccc(-c2ccc(NC(=O)c3ccc4c(=O)n(C5CCCCC5)cnc4c3)cc2)c1` was tested, and the pIC50 was 6.13.
